Earlier results as cited in patent publication US20130345257A1, “COMPOSITION FOR LUPUS NEPHRITIS AND METHODS OF MAKING AND USING THE SAME” (The Regents of the University of California, priority 2012, published 2013).

Assays:
murine SLE model = conditions: mouse, in vivo; cited from earlier work
human lupus = conditions: phase 1b trial; cited from earlier work
[1] = pulled out of a clinical trial; cited from earlier work

SMILES	Efficacy in murine SLE model (murine SLE model)	Adverse events profile (human lupus)	Toxicity in clinical trial [1]
CCc1cccc2c1c(O)c(C(=O)N(CC)c1ccccc1)c(=O)n2C [paquinimod]	effective	favorable adverse events profile	–
CN(C(=O)c1c(O)c2ccccc2n(C)c1=O)c1ccccc1 [roquinimex]	–	–	serious cardiovascular toxicities
